In US12331040B2 (Karyopharm Therapeutics Inc., priority 2013, dated 2025) one finds IC50 data, which are given here for 21 molecules.

Experiment in all cases: MTT cell proliferation assay
Format in all cases: cell-based
On the technique in general: Formazan colour is commonly taken as a measure of viable cells.

Assay [1] deals with MS751 cells. The following applies: Homo sapiens, MS751, MS751 cells, approximately 64-72 hours incubation. The procedure, abridged: (§1)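 Cytotoxicity was measured by MTT: OD490 of the solubilized formazan after roughly 4 h with MTT reagent, reported as mean percent inhibition relative to the negative control. Test compounds covered eight concentrations between 1 nM and 30 μM, added to 5,000–10,000 cells per well that had attached overnight.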

Assay [2] deals with Z138 cells. To be noted: Homo sapiens, Z-138, Z138 cells, approximately 64-72 hours incubation. The method in brief:
as §1

The subject of assay [3] is 3T3 cells. The following applies: Mus musculus, NIH3T3, approximately 64-72 hours incubation. The procedure, abridged:
as §1

The mark [4] stands for this setting: read-out: MTT Assay IC50, MS-751.
The mark [5] stands for this setting: read-out: MTT Assay IC50, Z-138.
The mark [6] stands for this setting: read-out: MTT Assay IC50 MS-751.

Broadly, the IC50 is the point on the concentration scale where inhibition reaches its midpoint.

The structures appear in SMILES notation. Where two headings read alike, the source gives them in different places.

Take `Nc1ccc(/C=C/C(=O)NCc2cc3cc(-c4ccc(C(=O)N5CCC(F)(F)CC5)cc4)cc(-c4ccncc4)c3o2)cn1` [Compound 722, (E)-3-(6-aminopyridin-3-yl)-N-((5-(4-(4,4-difluoropiperidine-1-carbonyl)phenyl)-7-(pyridin-4-yl)benzofuran-2-yl)methyl)acrylamide]: the 50% inhibitory concentration (IC50) in assay [1] (setting [4]) is below 100 nM; in assay [2] (setting [5]) it was below 100 nM; in assay [3] (read-out: MTT Assay IC50, 3T3) it was 100 to 5000 nM.

`CC1(O)CCN(C(=O)c2ccc(-c3cc(C(F)(F)F)c4oc(CNC(=O)/C=C/c5ccc(N)nc5)cc4c3)cc2)CC1` [Compound 571, (E)-3-(6-aminopyridin-3-yl)-N-((5-(4-(4-hydroxy-4-methylpiperidine-1-carbonyl)phenyl)-7-(trifluoromethyl)benzofuran-2-yl)methyl)acrylamide]: the values for the IC50 in assay [1] (setting [6]), in assay [2] (read-out: MTT Assay IC50 Z-138) and in assay [3] (read-out: MTT Assay IC50 3T3) were 100 to 5000 nM, below 100 nM and above 10000 nM, respectively.

Turning to `Nc1ccc(/C=C/C(=O)NCc2cc3cc(-c4ncc(C(=O)N5CCOCC5)cn4)cc(C(F)(F)F)c3o2)cn1` [Compound 593, (E)-3-(6-aminopyridin-3-yl)-N-((5-(5-(morpholine-4-carbonyl)pyrimidin-2-yl)-7-(trifluoromethyl)benzofuran-2-yl)methyl)acrylamide], the concentration for half-maximal inhibition (IC50) in assay [1] (setting [6]) was 100 to 5000 nM; in assay [2] (read-out: MTT Assay IC50 Z-138) it was 100 to 5000 nM; in assay [3] (read-out: MTT Assay IC50 3T3), above 10000 nM.

Turning to `Nc1ccc(/C=C/C(=O)NCc2cc3cc(-c4cccc(C(=O)N5CCOCC5)c4)cc(Cl)c3o2)cn1` [Compound 543, (E)-3-(6-Aminopyridin-3-yl)-N-((7-chloro-5-(3-(morpholine-4-carbonyl)phenyl)benzofuran-2-yl)methyl)acrylamide], the IC50 was below 100 nM in assay [1] (setting [6]), below 100 nM in assay [2] (read-out: MTT Assay IC50 Z-138) and 100 to 5000 nM in assay [3] (read-out: MTT Assay IC50 3T3).

Take `Nc1ccc(/C=C/C(=O)NCc2cc3cc(-c4ccc(S(=O)(=O)N5CCOCC5)cc4)cc(C(F)(F)F)c3o2)cn1` [Compound 531, (E)-3-(6-aminopyridin-3-yl)-N-((5-(4-(morpholinosulfonyl)phenyl)-7-(trifluoromethyl)benzofuran-2-yl)methyl)acrylamide]: the concentration for half-maximal inhibition (IC50) is below 100 nM in assay [1] (setting [6]), 100 to 5000 nM in assay [2] (read-out: MTT Assay IC50 Z-138) and 100 to 5000 nM in assay [3] (read-out: MTT Assay IC50 3T3).

Take `Nc1ccc(/C=C/C(=O)NCc2cc3cc(-c4ccc(C(=O)N5CCC(F)(F)CC5)cn4)cc(C4CC4)c3o2)cn1` [Compound 659, (E)-3-(6-aminopyridin-3-yl)-N-((7-cyclopropyl-5-(5-(4,4-difluoropiperidine-1-carbonyl)pyridin-2-yl)benzofuran-2-yl)methyl)acrylamide]: the IC50 is 100 to 5000 nM in assay [1] (setting [4]); 100 to 5000 nM in assay [2] (setting [5]); above 10000 nM in assay [3] (read-out: MTT Assay IC50, 3T3).

Regarding `Nc1ccc(/C=C/C(=O)NCc2cc3cc(-c4ccc(C(=O)N5CCC(F)(F)CC5)cn4)cc(-c4cc5ccccc5o4)c3o2)cn1` [Compound 668, (E)-3-(6-aminopyridin-3-yl)-N-((5′-(5-(4,4-difluoropiperidine-1-carbonyl)pyridin-2-yl)-2,7′-bibenzofuran-2′-yl)methyl)acrylamide], the IC50 is below 100 nM in assay [1] (setting [4]); below 100 nM in assay [2] (setting [5]); 100 to 5000 nM in assay [3] (read-out: MTT Assay IC50, 3T3).

As for `CC(=O)c1ccc(-c2cc(Cl)c3oc(CNC(=O)/C=C/c4ccc(N)nc4)cc3c2)s1` [Compound 500, (E)-N-((5-(5-acetylthiophen-2-yl)-7-chlorobenzofuran-2-yl)methyl)-3-(6-aminopyridin-3-yl) acrylamide], the IC50 is 100 to 5000 nM in assay [1] (setting [6]), 100 to 5000 nM in assay [2] (read-out: MTT Assay IC50 Z-138) and above 10000 nM in assay [3] (read-out: MTT Assay IC50 3T3).

Regarding `O=C(/C=C/c1cccnc1)NCc1cc2cc(-c3ccc(C(=O)N4CCC(F)(F)CC4)cn3)cc(-c3ccc(F)cc3)c2o1` [Compound 719, (E)-N-((5-(5-(4,4-difluoropiperidine-1-carbonyl)pyridin-2-yl)-7-(4-fluorophenyl)benzofuran-2-yl)methyl)-3-(pyridin-3-yl)acrylamide], the IC50 in assay [1] (setting [4]) is below 100 nM; in assay [2] (setting [5]) it was below 100 nM; in assay [3] (read-out: MTT Assay IC50, 3T3), below 100 nM.

As to `Nc1ccc(/C=C/C(=O)NCc2cc3cc(-c4ccc(C(=O)CN5CCOCC5)cc4)cc(Cl)c3o2)cn1` [Compound 507, (E)-3-(6-aminopyridin-3-yl)-N-((7-chloro-5-(4-(2-morpholinoacetyl)phenyl)benzofuran-2-yl)methyl)acrylamide], the half-maximal inhibitory concentration (IC50) in assay [1] (setting [6]) is 100 to 5000 nM; in assay [2] (read-out: MTT Assay IC50 Z-138) it was 100 to 5000 nM; in assay [3] (read-out: MTT Assay IC50 3T3) it was above 10000 nM.

Consider `CO[C@@H]1CN(C(=O)c2ccc(-c3cc(C(F)(F)F)c4oc(CNC(=O)/C=C/c5ccc(N)nc5)cc4c3)nc2)C[C@H]1F` [Compound 628, (E)-3-(6-aminopyridin-3-yl)-N-((5-(5-(3-fluoro-4-methoxypyrrolidine-1-carbonyl)pyridin-2-yl)-7-(trifluoromethyl)benzofuran-2-yl)methyl)acrylamide], for which the IC50 in assay [1] (setting [6]) was 100 to 5000 nM; in assay [2] (read-out: MTT Assay IC50 Z-138), 100 to 5000 nM; in assay [3] (read-out: MTT Assay IC50 3T3), above 10000 nM.

As to `Nc1ccc(/C=C/C(=O)NCc2cc3cc(-c4ccc(C(=O)N5CC6CC5CO6)cn4)cc(C(F)(F)F)c3o2)cn1` (stereo not drawn) [Compound 633, (E)-N-((5-(5-(2-oxa-5-azabicyclo[2.2.1]heptane-5-carbonyl)pyridin-2-yl)-7-(trifluoromethyl)benzofuran-2-yl)methyl)-3-(6-aminopyridin-3-yl)acrylamide], the IC50 in assay [1] (setting [6]) is 100 to 5000 nM; in assay [2] (read-out: MTT Assay IC50 Z-138), 100 to 5000 nM; in assay [3] (read-out: MTT Assay IC50 3T3), above 10000 nM.

As to `Nc1ccc(/C=C/C(=O)NCc2cc3cc(-c4ccc(S(=O)(=O)N5CC[C@H](F)C5)cc4)cc(Cl)c3o2)cn1` [Compound 643, (S,E)-3-(6-aminopyridin-3-yl)-N-((7-chloro-5-(4-(3-fluoropyrrolidin-1-ylsulfonyl)phenyl)benzofuran-2-yl)methyl)acrylamide], the half-maximal inhibitory concentration (IC50) in assay [1] (setting [6]) was 100 to 5000 nM; in assay [2] (read-out: MTT Assay IC50 Z-138) it was 100 to 5000 nM; in assay [3] (read-out: MTT Assay IC50 3T3), above 10000 nM.

In the case of `Nc1ccc(/C=C/C(=O)NCc2cc3cc(-c4ccc(C(=O)N5CCC(F)(F)CC5)cc4)cc(-c4cccc(Cl)c4)c3o2)cn1` [Compound 741, (E)-3-(6-aminopyridin-3-yl)-N-((7-(3-chlorophenyl)-5-(4-(4,4-difluoropiperidine-1-carbonyl)phenyl)benzofuran-2-yl)methyl)acrylamide], the half-maximal inhibitory concentration (IC50) in assay [1] (setting [4]) was below 100 nM; in assay [2] (setting [5]) it was below 100 nM; in assay [3] (read-out: MTT Assay IC50, 3T3), 100 to 5000 nM.

Regarding `Nc1ccc(/C=C/C(=O)NCc2cc3cc(-c4ccc(C(=O)N5CCC(F)(F)CC5)cc4)cc(-c4ccc(F)nc4F)c3o2)cn1` [Compound 754, (E)-3-(6-aminopyridin-3-yl)-N-((5-(4-(4,4-difluoropiperidine-1-carbonyl)phenyl)-7-(2,6-difluoropyridin-3-yl)benzofuran-2-yl)methyl)acrylamide], the IC50 was below 100 nM in assay [1] (setting [4]); below 100 nM in assay [2] (setting [5]); 100 to 5000 nM in assay [3] (read-out: MTT Assay IC50, 3T3).

On to `CN(C)c1ccc(/C=C/C(=O)NCc2cc3cc(-c4ccc(C(=O)N5CCOCC5)cc4)cc(Cl)c3o2)cn1` [Compound 551, (E)-N-((7-Chloro-5-(4-(morpholine-4-carbonyl)phenyl)benzofuran-2-yl)methyl)-3-(6-(dimethylamino)pyridin-3-yl)acrylamide], for which the IC50 in assay [1] (setting [6]), in assay [2] (read-out: MTT Assay IC50 Z-138) and in assay [3] (read-out: MTT Assay IC50 3T3) was above 10000 nM each time.

For the molecule `Nc1ccc(/C=C/C(=O)NCc2cc3cc(-c4ccc(C(=O)c5ccc(F)cc5)cn4)cc(-c4ccc(F)cc4)c3o2)cn1` [Compound 703, (E)-3-(6-aminopyridin-3-yl)-N-((5-(5-(4-fluorobenzoyl)pyridin-2-yl)-7-(4-fluorophenyl)benzofuran-2-yl)methyl)acrylamide], the half-maximal inhibitory concentration (IC50) was 100 to 5000 nM in assay [1] (setting [4]); below 100 nM in assay [2] (setting [5]); 5000 to 10000 nM in assay [3] (read-out: MTT Assay IC50, 3T3).

For `Nc1ccc(/C=C/C(=O)NCc2cc3cc(-c4ccc(C(=O)N5CCC(F)(F)CC5)s4)cc(C(F)(F)F)c3o2)cn1` [Compound 685, (E)-3-(6-aminopyridin-3-yl)-N-((5-(5-(4,4-difluoropiperidine-1-carbonyl)thiophen-2-yl)-7-(trifluoromethyl)benzofuran-2-yl)methyl)acrylamide], the half-maximal inhibitory concentration (IC50) was 100 to 5000 nM in assay [1] (setting [4]); 100 to 5000 nM in assay [2] (setting [5]); above 10000 nM in assay [3] (read-out: MTT Assay IC50, 3T3).

As to `Nc1ccc(/C=C/C(=O)NCc2cc3cc(-c4ccc(C(=O)N5CCC(F)(F)CC5)cc4)cc(-c4ccc(Cl)cc4F)c3o2)cn1` [Compound 739, (E)-3-(6-aminopyridin-3-yl)-N-((7-(4-chloro-2-fluorophenyl)-5-(4-(4,4-difluoropiperidine-1-carbonyl)phenyl)benzofuran-2-yl)methyl)acrylamide], the IC50 was 100 to 5000 nM in assay [1] (setting [4]); 100 to 5000 nM in assay [2] (setting [5]); above 10000 nM in assay [3] (read-out: MTT Assay IC50, 3T3).

On to `CC(c1ccc(-c2cc(-c3ccc(F)cc3)c3oc(CNC(=O)/C=C/c4ccc(N)nc4)cc3c2)cc1)N1CCC(F)(F)CC1` (stereo not drawn) [Compound 760, (E)-3-(6-aminopyridin-3-yl)-N-((5-(4-(1-(4,4-difluoropiperidin-1-yl)ethyl)phenyl)-7-(4-fluorophenyl)benzofuran-2-yl)methyl)acrylamide], for which the IC50 was 100 to 5000 nM in assay [1] (setting [4]); 100 to 5000 nM in assay [2] (setting [5]); above 10000 nM in assay [3] (read-out: MTT Assay IC50, 3T3).

On to `Nc1ccc(/C=C/C(=O)NCc2cc3cc(-c4ccc(C(=S)N5CCC(F)(F)CC5)cn4)cc(-c4ccncc4)c3o2)cn1` [Compound 707, (E)-3-(6-aminopyridin-3-yl)-N-((5-(5-(4,4-difluoropiperidine-1-carbonothioyl)pyridin-2-yl)-7-(pyridin-4-yl)benzofuran-2-yl)methyl)acrylamide], for which the IC50 in assay [1] (setting [4]) is below 100 nM; in assay [2] (setting [5]), below 100 nM; in assay [3] (read-out: MTT Assay IC50, 3T3) it was 100 to 5000 nM.
